For 26 molecules, Activity, EC50 and Ki results are on record in ChEMBL document CHEMBL5046295 (J Med Chem, 2022).

The source made the active and inactive calls. No cut-off for these calls is given here.

Test [1] concerns Mus musculus. Put plainly: Antinociceptive activity against Swiss Webster mouse model assessed as increase in tail withdrawal latency from warm water at 10 mg/kg, sc incubated for 5 mins followed by morphine addition and measured after 20 mins by warm water tail immersion assay. It counts as functional, organism-based.
Test [2] addresses T1, Mu-type opioid receptor (Mus musculus, UniProt P42866). Put plainly: Partial agonist activity at mouse mu opioid receptor expressed in CHO cell membranes incubated for 1.5 hrs by [35S]GTPgammaS binding based liquid scintillation counting method. For orientation: Binding of GTPγS marks nucleotide exchange on a G protein.
For test [3], the system named is Mus musculus. The test is described as follows: Antinociceptive activity against Swiss Webster mouse model assessed as increase in tail withdrawal latency from warm water by measuring maximum possible effect at 10 mg/kg, sc measured after 20 min by warm water tail immersion assay. It counts as functional, organism-based.
For test [4], the target named is Delta-type opioid receptor (Homo sapiens, UniProt P41143).
Description: Displacement of [3H]-diprenorphine from human delta opioid receptor expressed in CHO cell membranes assessed as inhibition constant incubated for 1.5 hrs by competitive binding assay
In test [5] the target is T1, Mu-type opioid receptor.
Test [6] concerns the target Kappa-type opioid receptor (Mus musculus, UniProt P33534).
Description: Displacement of [3H]-diprenorphine from mouse kappa opioid receptor expressed in CHO cell membranes assessed as inhibition constant incubated for 1.5 hrs by competitive binding assay

Broadly, the EC50 is the midpoint of the concentration-response curve. Read a high EC50 as lower potency in that assay. As a reminder, the Ki is the dissociation constant of the complex between target and ligand, obtained from inhibition or displacement. Lower therefore signals higher affinity.

T1 sequence (P42866 whole entry): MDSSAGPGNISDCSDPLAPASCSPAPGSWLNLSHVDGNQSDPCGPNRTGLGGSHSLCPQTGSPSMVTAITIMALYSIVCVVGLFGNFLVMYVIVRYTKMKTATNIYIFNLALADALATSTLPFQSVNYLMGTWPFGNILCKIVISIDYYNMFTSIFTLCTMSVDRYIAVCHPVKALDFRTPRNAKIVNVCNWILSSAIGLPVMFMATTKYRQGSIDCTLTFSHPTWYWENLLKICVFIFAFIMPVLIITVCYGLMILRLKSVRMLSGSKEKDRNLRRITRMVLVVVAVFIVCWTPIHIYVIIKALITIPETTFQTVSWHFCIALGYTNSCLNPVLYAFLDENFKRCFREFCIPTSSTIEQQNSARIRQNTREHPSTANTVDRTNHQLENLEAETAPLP
Chain of Kappa-type opioid receptor (P33534 whole entry): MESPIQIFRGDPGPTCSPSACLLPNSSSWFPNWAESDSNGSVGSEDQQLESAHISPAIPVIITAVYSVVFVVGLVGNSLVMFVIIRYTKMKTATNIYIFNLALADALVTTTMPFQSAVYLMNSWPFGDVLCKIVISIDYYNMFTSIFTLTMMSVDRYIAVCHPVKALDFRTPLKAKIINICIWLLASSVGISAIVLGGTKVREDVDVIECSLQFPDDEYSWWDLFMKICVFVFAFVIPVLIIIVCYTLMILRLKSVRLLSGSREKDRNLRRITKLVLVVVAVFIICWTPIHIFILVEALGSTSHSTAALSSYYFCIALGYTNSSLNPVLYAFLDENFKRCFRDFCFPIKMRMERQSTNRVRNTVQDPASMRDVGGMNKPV
Chain of Delta-type opioid receptor (P41143 whole entry): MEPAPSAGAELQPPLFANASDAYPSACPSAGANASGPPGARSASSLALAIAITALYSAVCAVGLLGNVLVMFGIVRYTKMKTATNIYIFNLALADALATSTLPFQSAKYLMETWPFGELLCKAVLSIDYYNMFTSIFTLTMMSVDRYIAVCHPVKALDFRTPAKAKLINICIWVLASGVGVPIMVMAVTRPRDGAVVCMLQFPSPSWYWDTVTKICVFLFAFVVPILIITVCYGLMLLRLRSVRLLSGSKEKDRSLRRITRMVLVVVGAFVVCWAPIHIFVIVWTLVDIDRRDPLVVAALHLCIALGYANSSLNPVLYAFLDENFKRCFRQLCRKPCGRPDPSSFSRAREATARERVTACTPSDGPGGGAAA

Turning to `O=C(CCc1ccoc1)N[C@@H]1CC[C@@]2(O)[C@H]3Cc4ccc(O)c5c4[C@@]2(CCN3CC2CC2)[C@H]1O5`, the outcome in test [1] and in test [3] was inactive. This molecule gave an EC50 in test [2] of 0.63 nM.

With `O=C(N[C@H]1CC[C@@]2(O)[C@H]3Cc4ccc(O)c5c4[C@@]2(CCN3CC2CC2)[C@H]1O5)c1ccoc1`, the Ki in test [4] worked out at 28.6 nM; in test [5], 0.5 nM; in test [6], 2.14 nM. In test [2], this molecule registered an EC50 of 7.63 nM. For the same molecule, the outcome in test [3] was Active.

Turning to `O=C(CCc1cccs1)N[C@H]1CC[C@@]2(O)[C@H]3Cc4ccc(O)c5c4[C@@]2(CCN3CC2CC2)[C@H]1O5`, the Ki in test [4] was 2.25 nM; in test [5], 0.48 nM; in test [6], 1.76 nM. Also, the result in test [1] and in test [3] was inactive. The EC50 in test [2] is 3.06 nM.

Turning to `O=C(Cc1ccc[nH]1)N[C@@H]1CC[C@@]2(O)[C@H]3Cc4ccc(O)c5c4[C@@]2(CCN3CC2CC2)[C@H]1O5`, the results for the Ki in test [4], in test [5] and in test [6] were 24.3 nM, 0.16 nM and 1.35 nM, respectively. In addition, the EC50 in test [2] stood at 0.8 nM. Also, in test [3], the result was Active.

For `O=C(Cc1cc[nH]c1)N[C@@H]1CC[C@@]2(O)[C@H]3Cc4ccc(O)c5c4[C@@]2(CCN3CC2CC2)[C@H]1O5`, the Ki is 37.8 nM in test [4], 0.28 nM in test [5] and 4.19 nM in test [6]. Further, the outcome in test [1] and in test [3] was inactive. In test [2], the EC50 stood at 1.18 nM.

Consider `O=C(N[C@@H]1CC[C@@]2(O)[C@H]3Cc4ccc(O)c5c4[C@@]2(CCN3CC2CC2)[C@H]1O5)c1cccs1`, for which the outcome in test [1] was Active. In test [3], the result was inactive.

On to `O=C(CCc1ccsc1)N[C@@H]1CC[C@@]2(O)[C@H]3Cc4ccc(O)c5c4[C@@]2(CCN3CC2CC2)[C@H]1O5`, for which the result in test [3] was Active.

For the molecule `O=C(N[C@H]1CC[C@@]2(O)[C@H]3Cc4ccc(O)c5c4[C@@]2(CCN3CC2CC2)[C@H]1O5)c1ccco1`, the Ki was 33.3 nM in test [4], 0.53 nM in test [5] and 1.97 nM in test [6]. Further, the result in test [1] and in test [3] was inactive. For the same molecule, the EC50 in test [2] stood at 9.49 nM.

As to `O=C(N[C@@H]1CC[C@@]2(O)[C@H]3Cc4ccc(O)c5c4[C@@]2(CCN3CC2CC2)[C@H]1O5)c1ccsc1`, the result in test [1] was Active. For the same molecule, the result in test [3] was inactive.

Take `O=C(CCc1ccsc1)N[C@H]1CC[C@@]2(O)[C@H]3Cc4ccc(O)c5c4[C@@]2(CCN3CC2CC2)[C@H]1O5`: the outcome in test [1] and in test [3] was inactive.

As for `O=C(Cc1ccsc1)N[C@@H]1CC[C@@]2(O)[C@H]3Cc4ccc(O)c5c4[C@@]2(CCN3CC2CC2)[C@H]1O5`, the Ki in test [4] stood at 36.1 nM; in test [5], 0.2 nM; in test [6], 1.31 nM. The outcome in test [1] and in test [3] was inactive. This molecule also gave an EC50 in test [2] of 3.24 nM.

With `O=C(CCc1cc[nH]c1)N[C@@H]1CC[C@@]2(O)[C@H]3Cc4ccc(O)c5c4[C@@]2(CCN3CC2CC2)[C@H]1O5`, the Ki in test [4] stood at 67.5 nM; in test [5], 0.41 nM; in test [6] it was 2.72 nM. Also, the result in test [1] and in test [3] was inactive. The molecule further registered an EC50 in test [2] of 1.6 nM.

For `O=C(N[C@@H]1CC[C@@]2(O)[C@H]3Cc4ccc(O)c5c4[C@@]2(CCN3CC2CC2)[C@H]1O5)c1ccc[nH]1`, the result in test [1] and in test [3] was inactive.

`O=C(CCc1ccoc1)N[C@H]1CC[C@@]2(O)[C@H]3Cc4ccc(O)c5c4[C@@]2(CCN3CC2CC2)[C@H]1O5`: the result in test [1] and in test [3] was inactive. Besides, in test [2], the EC50 is 2.31 nM.

Consider `O=C(N[C@H]1CC[C@@]2(O)[C@H]3Cc4ccc(O)c5c4[C@@]2(CCN3CC2CC2)[C@H]1O5)c1ccc[nH]1`, for which the outcome in test [1] was Active. Also, the outcome in test [3] was inactive.

Consider `O=C(Cc1ccc[nH]1)N[C@H]1CC[C@@]2(O)[C@H]3Cc4ccc(O)c5c4[C@@]2(CCN3CC2CC2)[C@H]1O5`, for which the Ki in test [4] turned out to be 3.85 nM; in test [5], 0.46 nM; in test [6], 2.88 nM. In addition, the outcome in test [1] and in test [3] was inactive. For the same molecule, the EC50 in test [2] was found to be 4.18 nM.

For `O=C(Cc1cc[nH]c1)N[C@H]1CC[C@@]2(O)[C@H]3Cc4ccc(O)c5c4[C@@]2(CCN3CC2CC2)[C@H]1O5`, the Ki in test [4] stood at 14.4 nM; in test [5], 3.62 nM; in test [6], 19 nM. Besides, the outcome in test [1] and in test [3] was inactive. Further, the EC50 in test [2] amounted to 51.4 nM.

For the molecule `O=C(N[C@@H]1CC[C@@]2(O)[C@H]3Cc4ccc(O)c5c4[C@@]2(CCN3CC2CC2)[C@H]1O5)c1ccoc1`, the values for the Ki in test [4], in test [5] and in test [6] were 1980 nM, 8.47 nM and 29.4 nM, respectively. For the same molecule, in test [2], the EC50 came out at 35 nM. For the same molecule, the outcome in test [3] was Active.

As for `O=C(Cc1ccsc1)N[C@H]1CC[C@@]2(O)[C@H]3Cc4ccc(O)c5c4[C@@]2(CCN3CC2CC2)[C@H]1O5`, the Ki was determined as 39.4 nM in test [4], 0.23 nM in test [5] and 0.65 nM in test [6]. The outcome in test [1] and in test [3] was inactive. This molecule yielded an EC50 in test [2] of 1.21 nM.

With `O=C(Cc1cccs1)N[C@H]1CC[C@@]2(O)[C@H]3Cc4ccc(O)c5c4[C@@]2(CCN3CC2CC2)[C@H]1O5`, the result in test [1] and in test [3] was inactive.

As to `O=C(N[C@@H]1CC[C@@]2(O)[C@H]3Cc4ccc(O)c5c4[C@@]2(CCN3CC2CC2)[C@H]1O5)c1cc[nH]c1`, the Ki in test [4] came out at 107 nM; in test [5], 0.36 nM; in test [6], 4.51 nM. The response in test [2] was half-maximal at 2.03 nM (EC50). In addition, the outcome in test [3] was Active.

For `O=C(CCc1cccs1)N[C@@H]1CC[C@@]2(O)[C@H]3Cc4ccc(O)c5c4[C@@]2(CCN3CC2CC2)[C@H]1O5`, the result in test [3] was Active.

For `O=C(CCc1ccco1)N[C@H]1CC[C@@]2(O)[C@H]3Cc4ccc(O)c5c4[C@@]2(CCN3CC2CC2)[C@H]1O5`, the outcome in test [1] and in test [3] was inactive.

With `O=C(CCc1ccc[nH]1)N[C@@H]1CC[C@@]2(O)[C@H]3Cc4ccc(O)c5c4[C@@]2(CCN3CC2CC2)[C@H]1O5`, the Ki turned out to be 36.7 nM in test [4], 0.52 nM in test [5] and 1.25 nM in test [6]. This molecule had an EC50 in test [2] of 1.22 nM. For the same molecule, the outcome in test [3] was Active.

For the molecule `O=C(CCc1ccco1)N[C@@H]1CC[C@@]2(O)[C@H]3Cc4ccc(O)c5c4[C@@]2(CCN3CC2CC2)[C@H]1O5`, the result in test [1] and in test [3] was inactive.

For the molecule `O=C(Cc1cccs1)N[C@@H]1CC[C@@]2(O)[C@H]3Cc4ccc(O)c5c4[C@@]2(CCN3CC2CC2)[C@H]1O5`, the Ki in test [4] is 64.9 nM. The outcome in test [1] and in test [3] was inactive.
